According to patent US5254459A, “Nucleotide and amino acid sequences of protein MTP40 of M. tuberculosis and synthetic peptides derived therefrom” (priority 1992, dated 1993):
No end group written: not given here.

System: sera from tuberculosis patients
Experiment: ELISA recognition of synthetic MTP40 peptides by human sera
Format: binding
Settings: sera from active tuberculosis patients having B(+) sputum; peptide coated at 3 micrograms per well

Question: How did the “percentage of sera recognizing the peptide (ELISA)” value turn out when “WLKLGLVEFGGVAKLNAEVMS [S698, synthetic peptide derived from M. tuberculosis MTP40 protein]” was run?
Answer: Its value is 20.8%.
